Reference: US20240173419A1, “CDK2 DEGRADERS AND USES THEREOF” (Kymera Therapeutics, Inc., priority 2022, published 2024)

Molecular target: T1, CDK2 (Homo sapiens, UniProt P24941)
T1 construct: endogenous in cells; host or cells: MKN1 cells
Assay: CDK2 degradation in MKN1 cells (AlphaLISA)
Type: cell-based
Design: key to CDK2 degradation 14 h: Mean external-Abs DC50 (nM): A (<100 nM); B (≥100-500 nM); C (>500-1000 nM); D (>1000 nM); E (not achieved)
Conditions: for DC50: read-out: CDK2 degradation 14 h: Mean external-Abs DC50
Protocol: Degradation of CDK2 in MKN1 cells was measured using AlphaLISA technology (PerkinElmer ALSU-TCDK2-A10K). MKN1 cells were maintained in RPMI1640 medium containing 10% FBS+1× penn/strep. Cells were seeded in 96-well plates (Corning 3599) at a density of 2e4 cells per well in 80 μL of fresh complete growth medium. Cells were incubated overnight at 37° C., 5% CO2. Compounds were then added to the cell assay plates with a final top concentration of 10 μM in a 1:5 dilution series with a total of 11 doses (0.001 nM-10 μM). The final volume per well was 160 μL and the final DMSO concentration was 0.1%. Additionally, wells containing no cells and only complete growth medium were also maintained on the cell assay plates (‘no cell’ wells) and processed along with experimental wells. After 14 hour-incubation at 37° C., 5% CO2, the medium was removed and the cells were washed once with 100 μL of 1×PBS. Following removal of PBS, 40 μL of 1× Lysis Buffer containing 1× protease and phosphatase inhibitors (Roche 4693116001; Roche 4906837001) were added to each well. The cell assay plate was agitated on a plate shaker at 350 rpm for 10 minutes at room temperature. 10 μL of each cell lysate were transferred to a 384-well plate (PerkinElmer 6007290). 10 μL of control lysates (from PerkinElmer ALSU-TCDK2-A10K kit) were added to separate wells to generate a standard curve. Activation Buffer was prepared by diluting 25-fold in combined Reaction Buffer 1 and Reaction Buffer 2. Acceptor Beads were diluted 50-fold in combined Reaction Buffers. 5 μL of Acceptor Mix were added to each well. The plate was sealed with Topseal-Aadhesive film, covered with foil, and incubated in the dark for 1 hour at room temperature. Under subdued light, the Donor Beads were diluted 50-fold in Dilution Buffer. 5 μL of Donor Mix were added to each well under subdued light. The plate was sealed with Topseal-A adhesive film, covered with foil, and incubated in the dark for 1 hour at room temperature. Under subdued light, the plates were analyzed on an EnVision Microplate Reader (PerkinElmer Model 2009-0030). The average signal from ‘no cell’ wells was subtracted from the signal in experimental wells prior to calculating Alpha signal for test compounds and negative control (0.100 DMSO). The data were analyzed using Xlfit (v5.3. 1.3) and the dose-dependent CDK2 degradation data were fit using a four-parameter logistic model to calculate DC50.

| Compound | DC50 (14 h incubation) [nM] | Dmax (MKN-1, 14 h incubation) [%] | CDK2 degradation 14 h: Average Dmax % (14 h incubation) | CDK2 degradation 14 h: Mean external-Abs DC50 (nM) (14 h incubation) |
| --- | --- | --- | --- | --- |
| Cc1cc(S(=O)(=O)C2CCN(CCN3CCN(c4cccc5c4n(C)c(=O)n5C4CCC(=O)NC4=O)CC3)CC2)ccc1Nc1ncc2c(n1)N(C1CCCC1)C(=O)C21CC1 (stereo not drawn) [I-50, 3-[4-[4-[2-[4-[4-[(7′-Cyclopentyl-6′-oxo-spiro[cyclopropane-1,5′-pyrrolo[2,3-d]pyrimidine]-2′-yl)amino]-3-methyl-phenyl]sulfonyl-1-piperidyl]ethyl]piperazin-1-yl]-3-methyl-2-oxo-benzimidazol-1-yl]piperidine-2,6-dione] | < 100 | > 75 |  |  |
| Cc1cc(S(=O)(=O)C2CCN(C3CC4(CCN(c5cccc6c5n(C)c(=O)n6C5CCC(=O)NC5=O)CC4)C3)CC2)ccc1Nc1ncc2c(n1)N(C1CCCC1)C(=O)C21CC1 (stereo not drawn) [I-52] | 100 to 500 |  | B (B (>50% -75%)) |  |
| Cc1cc(S(=O)(=O)[C@H]2CC[C@H](CN(C)C3CCN(c4cccc5c4n(C)c(=O)n5C4CCC(=O)NC4=O)CC3)CC2)ccc1Nc1ncc2c(n1)N(C1CCCC1)C(=O)C21CC1 (stereo partly drawn) [I-53] | < 100 |  | A (A (>75% o)) |  |
| Cc1cc(S(=O)(=O)C2CC3(CCN(CC4CCN(c5ccc6c(c5)n(C)c(=O)n6C5CCC(=O)NC5=O)CC4)CC3)C2)ccc1Nc1ncc2cc(Cl)c(=O)n(C3CCCC3)c2n1 (stereo not drawn) [I-57] | < 100 |  | A (A (>75% o)) |  |
| Cc1cc(S(=O)(=O)C2CC3(CCN(CC4CCN(c5cccc6c5n(C)c(=O)n6C5CCC(=O)NC5=O)CC4)CC3)C2)ccc1Nc1ncc2cc(Cl)c(=O)n(C3CCCC3)c2n1 (stereo not drawn) [I-58] | < 100 |  | A (A (>75% o)) |  |
| Cc1cc(S(=O)(=O)C2CCN(CCC3CCN(c4cccc5c4n(C)c(=O)n5C4CCC(=O)NC4=O)CC3)CC2)ccc1Nc1ncc2cc(Cl)c(=O)n(C3CCCC34CC4)c2n1 (stereo not drawn) [I-59] | < 100 |  | A (A (>75% o)) |  |
| Cc1cc(S(=O)(=O)C2CCC(CN(C)C3CCN(c4cccc5c4n(C)c(=O)n5C4CCC(=O)NC4=O)CC3)CC2)ccc1Nc1ncc2cc(Cl)c(=O)n(C3CCCC34CC4)c2n1 (stereo not drawn) [I-60] | < 100 |  | A (A (>75% o)) |  |
| Cc1cc(S(=O)(=O)C2CCN(CCN3CCN(c4cccc5c4n(C)c(=O)n5C4CCC(=O)NC4=O)CC3)CC2)ccc1Nc1ncc(C(F)(F)F)c(-c2cnn(C)c2)n1 (stereo not drawn) [I-61] | < 100 |  | A (A (>75% o)) |  |
| Cc1cc(S(=O)(=O)[C@H]2CC[C@H](CN(C)C3CCN(c4cccc5c4n(C)c(=O)n5C4CCC(=O)NC4=O)CC3)CC2)ccc1Nc1ncc2ccc(=O)n(C3CCCC3)c2n1 (stereo partly drawn) [I-63] | < 100 |  | A (A (>75% o)) |  |
| Cc1cc(S(=O)(=O)C2CCN(CCN3CCN(c4cccc5c4n(C)c(=O)n5C4CCC(=O)NC4=O)CC3)CC2)ccc1Nc1ncc2cc(Cl)c(=O)n(C3CCCC3)c2n1 (stereo not drawn) [I-64] | < 100 |  | A (A (>75% o)) |  |
| Cc1cc(S(=O)(=O)C(C)(C)CCO[C@H]2CC[C@H](CN3CCC(c4ccc5c(c4)n(C)c(=O)n5C4CCC(=O)NC4=O)CC3)CC2)ccc1Nc1ncc2cc(Cl)c(=O)n(C3CCCC3)c2n1 (stereo partly drawn) [I-65] | < 100 |  | A (A (>75% o)) |  |
| Cc1cc(S(=O)(=O)C2CCC3(CC2)CN(CC2CCN(c4cccc5c4n(C)c(=O)n5C4CCC(=O)NC4=O)CC2)C3)ccc1Nc1ncc2cc(Cl)c(=O)n(C3CCCC3)c2n1 (stereo not drawn) [I-66] | 100 to 500 |  | A (A (>75% o)) |  |
| Cc1cc(S(=O)(=O)C2CCC3(CC2)CN(CC2CCN(c4ccc5c(c4)n(C)c(=O)n5C4CCC(=O)NC4=O)CC2)C3)ccc1Nc1ncc2cc(Cl)c(=O)n(C3CCCC3)c2n1 (stereo not drawn) [I-67] | 100 to 500 |  | A (A (>75% o)) |  |
| Cc1cc(S(=O)(=O)CCCO[C@H]2CC[C@H](CN3CCC(c4ccc5c(c4)n(C)c(=O)n5C4CCC(=O)NC4=O)CC3)CC2)ccc1Nc1ncc(C(F)(F)F)c(-c2cnn(C)c2)n1 (stereo partly drawn) [I-68] | < 100 |  |  |  |
| Cc1cc(S(=O)(=O)C2CC3(CCN(CC4CCN(c5cc(F)cc(NC6CCC(=O)NC6=O)c5)CC4)CC3)C2)ccc1Nc1ncc2cc(Cl)c(=O)n(C3CCCC3)c2n1 (stereo not drawn) [I-69] | 100 to 500 |  | A (A (>75% o)) |  |
| Cc1cc(S(=O)(=O)C2CC3(CCN(CC4CCN(c5ccc(F)c(NC6CCC(=O)NC6=O)c5)CC4)CC3)C2)ccc1Nc1ncc2cc(Cl)c(=O)n(C3CCCC3)c2n1 (stereo not drawn) [I-70] | > 1000 |  | B (B (>50% -75%)) |  |
| Cc1cc(S(=O)(=O)C2CC3(CCN(CC4CCN(c5cccc(NC6CCC(=O)NC6=O)c5F)CC4)CC3)C2)ccc1Nc1ncc2cc(Cl)c(=O)n(C3CCCC3)c2n1 (stereo not drawn) [I-71] | 100 to 500 |  | A (A (>75% o)) |  |
| COc1cc(N2CCC(CN3CCC4(CC3)CC(S(=O)(=O)c3ccc(Nc5ncc6cc(Cl)c(=O)n(C7CCCC7)c6n5)c(C)c3)C4)CC2)ccc1NC1CCC(=O)NC1=O (stereo not drawn) [I-72] | 100 to 500 |  | A (A (>75% o)) |  |
| Cc1cc(S(=O)(=O)C2CC3(CCN(CC4CCN(c5ccc(OC6CCC(=O)NC6=O)cc5)CC4)CC3)C2)ccc1Nc1ncc2cc(Cl)c(=O)n(C3CCCC3)c2n1 (stereo not drawn) [I-73] | < 100 |  | A (A (>75% o)) |  |
| Cc1cc(S(=O)(=O)C2CC3(CCN(CC4CCN(c5cccc(OC6CCC(=O)NC6=O)c5)CC4)CC3)C2)ccc1Nc1ncc2cc(Cl)c(=O)n(C3CCCC3)c2n1 (stereo not drawn) [I-74] | 100 to 500 |  | A (A (>75% o)) |  |
| Cc1cc(S(=O)(=O)C2CC3(CCN(CC4CCN(c5ccc(NC6CCC(=O)NC6=O)cc5C)CC4)CC3)C2)ccc1Nc1ncc2cc(Cl)c(=O)n(C3CCCC3)c2n1 (stereo not drawn) [I-75] | 100 to 500 |  | B (B (>50% -75%)) |  |
| Cc1cc(S(=O)(=O)C2CC3(CCN(CC4CCN(c5ccc(NC6CCC(=O)NC6=O)c(C)c5)CC4)CC3)C2)ccc1Nc1ncc2cc(Cl)c(=O)n(C3CCCC3)c2n1 (stereo not drawn) [I-76] | 500 to 1000 |  | B (B (>50% -75%)) |  |
| COc1cc(NC2CCC(=O)NC2=O)ccc1N1CCC(CN2CCC3(CC2)CC(S(=O)(=O)c2ccc(Nc4ncc5cc(Cl)c(=O)n(C6CCCC6)c5n4)c(C)c2)C3)CC1 (stereo not drawn) [I-77] | < 100 |  | A (A (>75% o)) |  |
| Cc1cc(S(=O)(=O)C2CC3(CCN(CC4CCN(c5cccc(N6CCC(=O)NC6=O)c5)CC4)CC3)C2)ccc1Nc1ncc2cc(Cl)c(=O)n(C3CCCC3)c2n1 [I-78] | > 1000 |  | D (D (<25%)) |  |
| Cc1cc(S(=O)(=O)C2CC3(CCN(CC4CCN(c5ccc(N6CCC(=O)NC6=O)cc5)CC4)CC3)C2)ccc1Nc1ncc2cc(Cl)c(=O)n(C3CCCC3)c2n1 [I-79] | 100 to 500 |  | B (B (>50% -75%)) |  |
| Cc1cc(S(=O)(=O)C2CC3(CCN(CC4CCN(c5cccc(C6CCC(=O)NC6=O)c5)CC4)CC3)C2)ccc1Nc1ncc2cc(Cl)c(=O)n(C3CCCC3)c2n1 (stereo not drawn) [I-80] |  |  | C (C (>25% -50%)) | E |
| Cc1cc(S(=O)(=O)C2CC3(CCN(CC4CCN(c5ccc(C6CCC(=O)NC6=O)cc5)CC4)CC3)C2)ccc1Nc1ncc2cc(Cl)c(=O)n(C3CCCC3)c2n1 (stereo not drawn) [I-81] | < 100 |  | A (A (>75% o)) |  |
| Cc1cc(S(=O)(=O)C2CC3(CCN(CC4CCN(c5cccc6c(N7CCC(=O)NC7=O)cncc56)CC4)CC3)C2)ccc1Nc1ncc2cc(Cl)c(=O)n(C3CCCC3)c2n1 [I-82] | < 100 |  | A (A (>75% o)) |  |
| Cc1cc(S(=O)(=O)C2CC3(CCN(CC4CCN(c5cccc6c5n(C)c(=O)n6C5CCC(=O)NC5=O)CC4)CC3)C2)ccc1Nc1ncc2cc(C(F)F)c(=O)n(C3CCCC3)c2n1 (stereo not drawn) [I-86] | < 100 |  | A (A (>75% o)) |  |
